Data set [1] has as its system Plasmodium falciparum Dd2 (chloroquine-resistant). Briefly: In vitro antimalarial growth inhibition assay (SYBR green), Dd2. Format: cell-based. To be noted: for EC50: Plasmodium falciparum, read-out: In vitro activity EC50 ± SD P. falciparum Dd2; for Fold more potent than chloroquine, Dd2: Dd2, versus chloroquine. The procedure: (§1) The antimalarial growth inhibition assay was performed as described previously. Briefly, the Plasmodium falciparum Dd2 and 3D7 parasites were diluted to 0.75% parasitemia with 2% hematocrit, and 50 μL diluted parasites were added to each well in a 96-well plate containing 50 μL of properly diluted drugs. Tested compounds were threefold diluted in triplicate with concentrations ranging from 20 – 0.001 µM/10 – 0.0005 µM. The parasites were incubated with the drug at 37 °C under mixed gas (5% O2, 5% CO2, and 90% N2) conditions for 48 h. DNA was released from the cultured parasite and stained with SYBR green dye. The plate was placed in the dark with gentle agitation for 1 h, and signals were read in a FLUOstar OPTIMA reader (BMG Labtech, Germany). Data from the microplate reader were analyzed as described previously[68] and plotted using Prism 9.0 software (GraphPad Software, Inc., San Diego, CA). Each in vitro experiment was performed in triplicate wells and repeated twice. Response Curves (CRCs) were plotted in GraphPad Prism (GraphPad Software, Inc.) with error bars representing the standard deviation of three replicate wells (Supplementary Fig. 10).

For data set [2], the system named is Plasmodium falciparum 3D7 (chloroquine-sensitive). In words: In vitro antimalarial growth inhibition assay (SYBR green), 3D7. The data set is classed as cell-based. The conditions noted are these: for EC50: Plasmodium falciparum. As for the experimental part:
as §1, with “Briefly, the Plasmodium falciparum Dd2 and 3D7 parasites were diluted to 0.75% parasitemia with 2% hematocrit, and 50 μL diluted parasites were added to each well in a 96-well plate containing 50 μL of properly diluted drugs.” left out

Data set [3] can be described thus: CellTiter-Glo cell viability assay (cytotoxicity), HEK293. To be noted: human, HEK293, 72 h treatment, read-out: In vitro cytotoxicity EC50 ± SD HEK293. The data set is classed as cell-based. The procedure:
(§2) Cells were obtained from the following sources: HEK293 (ATCC, cat # CRL-1573), MOLT-4 (ATCC, cat # CRL-1582). Cell lines were routinely tested for Mycoplasma contamination with the MycoAlert PLUS Mycoplasma Detection Kit (Lonza Bioscience, cat # LT07) according to manufacturer protocol. Cell number and cell viability were measured using the Countess Automated Cell Counter (Invitrogen) using Trypan blue stain (Invitrogen, cat # T10282). Human embryonic kidney HEK293 cells were maintained in DMEM with high glucose and GlutaMAX (Gibco, cat # 10566016) supplemented with 10% HyClone Characterized Fetal Bovine Serum (Cytiva, cat # SH30071.03), and 100 µ mL^−1 Penicillin-Streptomycin (Gibco, cat # 15140122). Human T lymphoblast MOLT-4 cells were maintained in RPMI 1640 Medium (Gibco, cat # 11875093) supplemented with 10% HyClone Characterized Fetal Bovine Serum (Cytiva, cat # SH30071.03), 100 µ mL^−1 Penicillin-Streptomycin (Gibco, cat # 15140122), and 10 mM HEPES (Gibco, 15630080). Cells were cultured in incubators maintained at 37 °C with 5% CO2 and 95% relative humidity.
(§3) The CTG assay (Promega, cat # G7572) was used to quantify cellular ATP according to manufacturer protocols. The Multidrop Combi liquid dispenser (ThermoFisher) was used to dispense 4 µL of cells into white 1536-well microplates (Corning, cat # 7464) at a density of 1500 cells/well. Plated cells were incubated overnight. (−)-Premarineosin A (3) and derivatives were transferred into respective wells of each plate at 25 nL/well with the mosquito (SPT Labtech) in 16-pt, 1:3 titrations for a final concentration of 125 µM–8.71 pM for compounds with a high concentration of 20 mM, or 62.5 µM–4.36 pM for compounds with a high concentration of 10 mM. Controls were transferred into respective wells of each plate at 25 nL/well with the mosquito with a 16-pt, 1:2 titration of Digitonin for a final concentration of 125 µM–3.81 nM. The final concentration of DMSO was 0.58%. Cells were incubated for either 24, 48, and 72 h, after which point 3 µL/well of CTG was transferred to each plate with the BioRaptr 2.0 FRD (LetsGoRobotics). Plates were incubated for 10 min in the dark at ambient temperature for 10 min. Luminescence was measured using a ViewLux 1430Ultra HTS (PerkinElmer) with the following optical settings: exposure = 1 s, gain = high, speed = slow, binning = 2X. Dimethyl sulfoxide (“DMSO”; AMRESCO, cat # RGE-3070) was used as a vehicle control. Digitonin (Sigma-Aldrich, cat # D141) was prepared as a 20 mM stock solution in DMSO and stored at −30 °C for use as a cytotoxicity control. (−)-Premarineosin A (3) and derivatives were prepared at either 10 mM or 20 mM stock solutions in DMSO. Data were normalized to 125 µM Digitonin as −100% inhibition in a row-wise manner across the plate. Normalization was performed in Excel (Microsoft) and Concentration Response Curves (CRCs) were plotted in GraphPad Prism (GraphPad Software, Inc.) with error bars representing the standard deviation of four replicate wells (Supplementary Fig. 9).

Data set [4] can be described thus: CellTiter-Glo cell viability assay (cytotoxicity), MOLT4. Format: cell-based. To be noted: human, MOLT4, 72 h treatment, read-out: In vitro cytotoxicity EC50 ± SD MOLT4. As for the experimental part: as §2, §3
On the technique in general: In ATP-based viability assays light output follows the ATP content of the culture.

Data set [5] deals with Plasmodium. Also on record: method as in PMID 24575817, PMID 19007176. The conditions noted are these: cited from earlier work.
Where [6] appears, read: Dd2 chloroquine-resistant, 48 h treatment.
Where [7] appears, read: 3D7 chloroquine-sensitive, 48 h treatment, read-out: In vitro activity EC50 ± SD P. falciparum 3D7.
The mark [8] stands for this setting: 3D7, 48 h, read-out: In vitro activity EC50 ± SD P. falciparum 3D7.
The mark [9] stands for this setting: MOLT-4 T-cell leukemia (T lymphoblast) cells.
Where [10] appears, read: 3D7 chloroquine-sensitive, 48 h treatment.

Where two headings read alike, the source gives them in different places. A value given as a limit tells only on which side of the number the result lay.

In general, EC50 refers to the concentration needed to bring the measured effect to its halfway point. Turning to `C[C@H]1[C@H](OC(=O)CCC(=O)O)O[C@@H]2O[C@@]3(C)CC[C@H]4[C@H](C)CC[C@@H]1[C@@]24OO3` [Artesunate, reference compound], the EC50 in data set [1] (setting [6]) is 8 ± 2 nM; in data set [2] (setting [7]), 24 ± 6 nM.
In the case of `CCN(CC)CCCC(C)Nc1ccnc2cc(Cl)ccc12` (stereo not drawn) [Chloroquine, reference compound], the EC50 came to 382 ± 22 nM in data set [1] (DD2, 48 h) and 41 ± 3 nM in data set [2] (setting [8]).
For the compound `COC1=CC(c2ccc[nH]2)=N[C@@]12O[C@H](C)C[C@H]1CCCCCCCc3ccc([nH]3)[C@@H]12` [compound 3, (−)-premarineosin A], in data set [1] (Dd2, versus artesunate), the “Fold more potent than artesunate, Dd2” value amounted to 8 fold. For the same compound, in data set [1], the “Fold more potent than chloroquine, Dd2” value is reported as above 350 fold. For the same compound, the EC50 in data set [1] (setting [6]) amounted to 1 ± 0.7 nM; in data set [2] (setting [7]), 4 ± 0.1 nM. Also, the figures for the concentration giving a half-maximal response (EC50) at 72 h in data set [3] and in data set [4] were 1470 ± 427 nM and 1060 ± 336 nM, respectively. In addition, the “Fold more potent than artesunate, 3D7” value in data set [2] (3D7, versus artesunate) was 6 fold. In data set [2] (3D7, versus chloroquine), the “Fold more potent than chloroquine, 3D7” value is “over 10 fold”. In addition, the “Antimalarial activity in vitro” value in data set [5] is “single-digit nanomolar”.
Take `COC1=CC(c2ccc[nH]2)=N[C@@]12O[C@H](C)C[C@H]1CCCCCCCc3[nH]c(cc3C(C)(C)c3cc4[nH]c3CCCCCCC[C@@H]3C[C@@H](C)O[C@@]5(N=C(c6ccc[nH]6)C=C5OC)[C@@H]43)[C@@H]12` [compound 4, gem-dimethyl-bridged premarineosin A]: the EC50 in data set [1] (DD2, 48 h) worked out at 1240 ± 168 nM; in data set [2] (setting [8]) it was 1890 ± 243 nM. In addition, the results for the EC50 at 72 h in data set [3] and in data set [4] were 8290 ± 1660 nM and 2260 ± 777 nM, respectively.
For the compound `COC1=CC(c2ccc[nH]2)=N[C@@]12O[C@H](C)C[C@H]1CCCCCCCc3[nH]c(cc3Cc3cc4[nH]c3CCCCCCC[C@@H]3C[C@@H](C)O[C@@]5(N=C(c6ccc[nH]6)C=C5OC)[C@@H]43)[C@@H]12` [compound 5, Methylene-bridged premarineosin A], the EC50 was found to be 548 ± 76 nM in data set [1] (setting [6]) and 1390 ± 265 nM in data set [2] (setting [7]). Further, the values for the EC50 at 72 h in data set [3] and in data set [4] were 8310 ± 1460 nM and 1160 ± 94 nM, respectively.
As to `COC1=CC(c2ccc[nH]2)=N[C@@]12O[C@H](C)C[C@H]1CCCCCCCc3[nH]c(cc3C(C)(c3cc4[nH]c3CCCCCCC[C@@H]3C[C@@H](C)O[C@@]5(N=C(c6ccc[nH]6)C=C5OC)[C@@H]43)C(F)(F)F)[C@@H]12` [compound 6, Trifluoromethyl-bridged premarineosin A], the results for the EC50 in data set [1] (setting [6]) and in data set [2] (setting [7]) were 2320 ± 448 nM and 5070 ± 1000 nM, respectively. Moreover, the EC50 at 72 h in data set [3] (HEK293 embryonic kidney cells) turned out to be 11000 ± 2150 nM; in data set [4] (setting [9]), 6510 ± 2740 nM.
For the compound `COC1=CC(c2ccc[nH]2)=N[C@@]12O[C@H](C)C[C@H]1CCCCCCCc3[nH]c(cc3C(C)(O)C(F)(F)F)[C@@H]12` (stereo partly drawn) [compound 7, 12-trifluoropropanol premarineosin A], the “In vitro activity EC50 ± SD P. falciparum Dd2” value in data set [1] (setting [6]) is on record as “sub-micromolar”. In addition, the EC50 was found to be 87 ± 15 nM in data set [1] (setting [6]) and 203 ± 10 nM in data set [2] (setting [7]). Besides, the EC50 at 72 h in data set [3] (HEK293 embryonic kidney cells) turned out to be 4210 ± 481 nM; in data set [4] (setting [9]), 1490 ± 388 nM. Moreover, the “In vitro activity EC50 ± SD P. falciparum 3D7” value in data set [2] (setting [10]) is “sub-micromolar”.
Turning to `COC1=CC(c2ccc[nH]2)=N[C@@]12O[C@H](C)C[C@H]1CCCCCCCc3[nH]c(cc3C=O)[C@@H]12` [compound 8, 12-formyl premarineosin A], the “In vitro activity EC50 ± SD P. falciparum Dd2” value in data set [1] (setting [6]) is “sub-micromolar”. The values for the EC50 in data set [1] (setting [6]) and in data set [2] (setting [7]) were 222 ± 53 nM and 165 ± 55 nM, respectively. Further, the EC50 at 72 h in data set [3] turned out to be 7790 ± 1620 nM; in data set [4], 6630 ± 836 nM. Further, in data set [2] (setting [10]), the “In vitro activity EC50 ± SD P. falciparum 3D7” value is listed as “sub-micromolar”.
Take `COC1=CC(c2ccc[nH]2)=N[C@@]12O[C@H](C)C[C@H]1CCCCCCCc3[nH]c(cc3C(C)=O)[C@@H]12` [compound 9, 12-acetyl premarineosin A]: in data set [1] (setting [6]), the “In vitro activity EC50 ± SD P. falciparum Dd2” value is recorded as “sub-micromolar”. For the same compound, the EC50 in data set [1] (setting [6]) came to 180 ± 14 nM; in data set [2] (setting [7]) it was 178 ± 25 nM. The EC50 at 72 h is 6590 ± 3020 nM in data set [3] (HEK293 embryonic kidney cells) and 3670 ± 1010 nM in data set [4] (setting [9]). In addition, the “In vitro activity EC50 ± SD P. falciparum 3D7” value in data set [2] (setting [10]) is listed as “sub-micromolar”.
As to `COC1=CC(c2ccc[nH]2)=N[C@@]12O[C@H](C)C[C@H]1CCCCCCCc3[nH]c(cc3CO)[C@@H]12` [compound 10, 12-hydroxymethyl-premarineosin A], the EC50 is 704 ± 304 nM in data set [1] (setting [6]) and 1230 ± 530 nM in data set [2] (setting [7]). The EC50 at 72 h in data set [3] turned out to be 18400 ± 6700 nM; in data set [4], 19700 ± 1220 nM.
With `COC1=CC(c2ccc(Br)[nH]2)=N[C@@]12O[C@H](C)C[C@H]1CCCCCCCc3ccc([nH]3)[C@@H]12` [compound 11, 1-bromo premarineosin A], the EC50 was 259 ± 24 nM in data set [1] (DD2, 48 h) and 473 ± 113 nM in data set [2] (setting [8]). Besides, the EC50 at 72 h in data set [3] worked out at 19200 ± 1730 nM; in data set [4], 1330 ± 691 nM.
`COC1=CC(c2ccc[nH]2)=N[C@@]12O[C@H](C)C[C@H]1CCCCCCCc3[nH]c(cc3Br)[C@@H]12` [compound 12, 12-bromo premarineosin A]: the “Fold more potent than chloroquine, Dd2” value in data set [1] amounted to 17 fold. Besides, the EC50 in data set [1] (DD2, 48 h) is 22 ± 11 nM; in data set [2] (setting [8]), 2 nM; in data set [2] (3D7, read-out: EC50 against P. falciparum) it was below 5 nM. Also, the figures for the EC50 at 72 h in data set [3] and in data set [4] were 1630 ± 184 nM and 480 ± 84 nM, respectively.
